The target in the assay is T1, human TRPM8 (Homo sapiens, UniProt Q7Z2W7).
T1 construct: expressed in transfected cells; host or cells: Chinese hamster ovary (CHO) cells, T-REx tetracycline-inducible system, co-transfected with aequorin
T1 sequence (Q7Z2W7 whole entry): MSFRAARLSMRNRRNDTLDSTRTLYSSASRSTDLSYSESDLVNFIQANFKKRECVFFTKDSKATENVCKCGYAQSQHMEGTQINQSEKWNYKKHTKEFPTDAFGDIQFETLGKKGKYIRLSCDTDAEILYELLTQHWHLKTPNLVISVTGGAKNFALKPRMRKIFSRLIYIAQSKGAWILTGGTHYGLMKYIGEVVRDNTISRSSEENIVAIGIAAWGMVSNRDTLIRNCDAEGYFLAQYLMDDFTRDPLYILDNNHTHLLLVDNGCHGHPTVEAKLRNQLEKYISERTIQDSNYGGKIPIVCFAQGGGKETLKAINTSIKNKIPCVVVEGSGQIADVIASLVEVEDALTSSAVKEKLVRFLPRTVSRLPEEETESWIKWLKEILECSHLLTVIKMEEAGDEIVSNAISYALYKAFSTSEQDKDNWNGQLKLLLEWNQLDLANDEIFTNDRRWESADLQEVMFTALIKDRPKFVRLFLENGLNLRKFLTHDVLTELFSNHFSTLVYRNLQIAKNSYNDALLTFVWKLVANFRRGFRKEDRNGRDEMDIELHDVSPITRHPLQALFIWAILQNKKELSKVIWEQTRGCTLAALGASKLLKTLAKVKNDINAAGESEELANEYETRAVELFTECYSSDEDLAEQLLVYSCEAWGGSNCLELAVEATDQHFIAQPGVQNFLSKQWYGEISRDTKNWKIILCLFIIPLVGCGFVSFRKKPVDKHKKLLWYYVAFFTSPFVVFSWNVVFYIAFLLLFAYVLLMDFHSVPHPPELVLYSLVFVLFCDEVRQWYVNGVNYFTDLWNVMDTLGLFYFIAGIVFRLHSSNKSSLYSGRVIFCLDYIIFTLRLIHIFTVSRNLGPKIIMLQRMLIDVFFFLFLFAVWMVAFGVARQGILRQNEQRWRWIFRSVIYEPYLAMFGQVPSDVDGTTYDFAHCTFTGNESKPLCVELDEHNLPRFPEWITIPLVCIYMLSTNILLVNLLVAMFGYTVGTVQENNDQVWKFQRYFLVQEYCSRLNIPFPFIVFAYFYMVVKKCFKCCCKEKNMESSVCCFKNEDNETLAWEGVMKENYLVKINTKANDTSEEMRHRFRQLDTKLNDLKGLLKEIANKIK
Nature of the assay: Luminescence readout assay for measuring intracellular calcium, icilin activation. The assay is classed as cell-based. The note with it: CHO cells expressing human TRPM8, aequorin luminescence, 1 μM icilin activation; read-out: hTRPM8 IC50. The procedure, abridged: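 The read-out was luminescence reporting intracellular calcium, recorded by a CCD-based luminometer. Compounds were preincubated for 2.5 min before agonist challenge with 1 μM icilin. Human TRPM8 was expressed in a stable T-REx CHO line, induced with 0.5 μg/mL tetracycline the day before.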
For orientation: A change in cytosolic calcium serves as a functional read-out for many receptors and channels.
Broadly, the IC50 is the concentration that inhibits the measured activity by half. Regarding `COc1ccc2cc([C@H](NC(=O)c3ccc4cccnc4c3)c3ncccc3C(F)(F)F)cnc2c1` [Example 8, (S)-N-((7-methoxyquinolin-3-yl)(3-(trifluoromethyl)pyridin-2-yl)methyl)quinoline-7-carboxamide], the IC50 was 54.3 nM. The result for `O=C(N[C@@H](c1ccc(OC(F)(F)F)cc1)c1ncccc1F)c1cc2n(n1)CCCO2` [Example 356, (S)-N-((3-fluoropyridin-2-yl)(4-(trifluoromethoxy)phenyl)methyl)-6,7-dihydro-5H-pyrazolo[5,1-b][1,3]oxazine-2-carboxamide] reads 78.4 nM.

In the case of `O=C(N[C@@H](c1ccc(OC(F)(F)F)cc1)c1ncccc1F)c1ccc2nnnn2c1` [Example 309, (S)-N-((3-fluoropyridin-2-yl)(4-(trifluoromethoxy)phenyl)methyl)tetrazolo[1,5-a]pyridine-6-carboxamide], the IC50 amounted to 30.8 nM. The result for `COc1ccnc(C(=O)N[C@@H](c2ccc(C(F)(F)F)cc2)c2ncccc2C(F)(F)F)c1` [Example 32, (S)-4-methoxy-N-((4-(trifluoromethyl)phenyl)(3-(trifluoromethyl)pyridin-2-yl)methyl)picolinamide] reads 143 nM. The result for `O=C(N[C@@H](c1ccc(C(F)(F)F)cc1)c1ncccc1C(F)(F)F)c1ccc2c(c1)C(=O)NC2=O` [Example 94, (S)-1,3-dioxo-N-((4-(trifluoromethyl)phenyl)(3-(trifluoromethyl)pyridin-2-yl)methyl)isoindoline-5-carboxamide] reads 41.4 nM. The figure for `CC(=O)Nc1ccc(C(=O)N[C@@H](c2ccc(C(F)(F)F)cc2)c2ncccc2C(F)(F)F)cn1` [Example 148, (S)-6-acetamido-N-((4-(trifluoromethyl)phenyl)(3-(trifluoromethyl)pyridin-2-yl)methyl)nicotinamide 2,2,2-trifluoroacetate] is 257 nM; for `N#Cc1ccc(C(=O)N[C@@H](c2ccc(C(F)(F)F)cc2)c2ncccc2C(F)(F)F)nc1` [Example 275, (S)-5-Cyano-N-((4-(trifluoromethyl)phenyl)(3-(trifluoro-methyl)pyridin-2-yl)methyl)picolinamide] it is 68.6 nM.

Turning to `O=C(N[C@@H](c1ccc(C(F)(F)F)cc1)c1ncccc1C(F)(F)F)c1ccc2nccc(O)c2c1` [Example 109, (S)-4-hydroxy-N-((4-(trifluoromethyl)phenyl)(3-(trifluoromethyl)pyridin-2-yl)methyl)quinoline-6-carboxamide 2,2,2-trifluoroacetate], the IC50 came to 63.9 nM. Take `O=C(Cc1ccccn1)N[C@@H](c1ccc(OC(F)(F)F)c(F)c1)c1ncccc1F` [Example 288, (S)-N-((3-fluoro-4-(trifluoromethoxy)phenyl)(3-fluoropyridin-2-yl)methyl)-2-(pyridin-2-yl)acetamide]: the IC50 was 139 nM. The figure for `O=C(N[C@@H](c1ccc(C(F)(F)F)c(F)c1)c1ncccc1C(F)(F)F)c1cnccn1` [Example 111, (S)-N-((3-fluoro-4-(trifluoromethyl)phenyl)(3-(trifluoromethyl)pyridin-2-yl)methyl)pyrazine-2-carboxamide] is 55.9 nM; for `O=C(N[C@@H](c1cccc(F)c1)c1ncccc1C(F)(F)F)c1ccc2cccnc2c1` [Example 17, (S)-N-((3-fluorophenyl)(3-(trifluoromethyl)pyridin-2-yl)methyl)quinoline-7-carboxamide] it is 230 nM.

As to `Cc1cc(C)n2nc(C(=O)N[C@@H](c3ccc(C(F)(F)F)cc3)c3ncccc3C(F)(F)F)nc2n1` [Example 151, (S)-5,7-dimethyl-N-((4-(trifluoromethyl)phenyl)(3-(trifluoromethyl)pyridin-2-yl)methyl)-[1,2,4]triazolo[1,5-a]pyrimidine-2-carboxamide 2,2,2-trifluoroacetate], the IC50 is 395 nM.

Turning to `O=C(N[C@@H](c1ccc(C(F)(F)F)cc1)c1ncccc1F)c1c[nH]c2ncccc12` [Example 54, (S)-N-((3-fluoropyridin-2-yl)(4-(trifluoromethyl)phenyl)methyl)-1H-pyrrolo[2,3-b]pyridine-3-carboxamide], the IC50 came to 23.1 nM.

For the origin of these results see US8710043B2, “TRPM8 antagonists and their use in treatments” (Amgen Inc., priority 2011, dated 2014).
